The values that follow are results of earlier work, collected in patent publication US6653469B1, “Antibiotic purification method” (Murty Pharmaceuticals, Inc., priority 2002, dated 2003).

Assay in data set [1]: not given
The source holds these as a separate data set.

The test system of data set [2] is heat shock protein 90 (Hsp90).

Take `COC1=C2C[C@@H](C)C[C@H](OC)[C@H](O)[C@@H](C)/C=C(\C)[C@H](OC(N)=O)[C@@H](OC)/C=C\C=C(/C)C(=O)NC(=CC1=O)C2=O` [geldanamycin]: the “solubility in acetone, benzene, and ethyl acetate” value (acetone, benzene, ethyl acetate) was “less soluble”. Where the note is “alcohols, chloroform”, the “solubility in alcohols and aliphatic chlorinated solvents such as chloroform” value is reported as “soluble”. In addition, the solubility in water entry (water) is listed as “only slightly soluble”. The “stability to acid, base, or heat” value in data set [1] (acid, base, or heat in the presence of oxygen) was “decompose easily”. For the same compound, in data set [1] (aqueous and nonaqueous solutions), the photolytic stability entry is on record as “undergoes photolytic degradation”.
On to `CO[C@H]1[C@@H](OC)C[C@H](C)[C@@H](OC)C2=CC(=O)C=C(NC(=O)/C(C)=C/C=C\[C@H](OC)[C@@H](OC(N)=O)/C(C)=C/[C@@H]1C)C2=O` [herbimycin A], for which the “binding to Hsp90 and effect on Hsp90 function” value in data set [2] was “bind specifically to Hsp90”.
Turning to `COC1CC(C)C(OC)c2cc(O)cc(c2O)NC(=O)/C(C)=C\C=C/C(C)C(OC(N)=O)/C(C)=C\C(C)C1OC` (stereo not shown) [macbecin II], the “binding to Hsp90 and effect on Hsp90 function” value in data set [2] is on record as “bind specifically to Hsp90”.
